Assay: recombinant UMI read abundance after kanamycin selection (control-corrected) (log10(CPM+1)); higher = more efficient recombination; extreme values may be limits of the assay; sequences stand for … in AGTGCAGAGAAAATCGGCCAGTTTTCTCTGCCTGCAGTCCGCATGCCGTGGGACCCCTTGGGTTCTAACCTGTTGCCTAGATTTATGCAGCGGACTGCCTTTCTCCCAAAGTGATAAACCGG…AGGTTGGTTTCACT; site = the 11-nt donor
How it was run: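 Values, expressed as log10(CPM+1), derive from recombinant UMI counts converted to CPM, averaged across replicates and scaled by control-derived factors. Plating was with IPTG (0.07 mM) plus kanamycin or unselected, two replicates each. The screen pooled donor and donor-binding-loop pairs for the IS621 bridge recombinase in Escherichia coli.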
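Note: IS621 bridge recombinase in Escherichia coli cells against a fixed T5 target plasmid.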

Sequence | recombinant UMI read abundance (log10)
TCACTCGCATGGACCGGTTTTCCCGGTAATCCGTATTTGAA (site TCACTCGCTTT) | 1.86
TCAGACCCATGGACCGGTTTTCCCGGTAATCCGTATTTGGA (site TCAGACCCTTC) | 0.201
TCAGAGACATGGACCGGTTTTCCCGGTAATCCGTATTTGAG (site TCAGAGACTCA) | 0.02
TCAGAGACATGGACCGGTTTTCCCGGTAATCCGTATTTGAG (site TCAGAGACTCC) | 0.288
TCAGAGACATGGACCGGTTTTCCCGGTAATCCGTATTTGAG (site TCAGAGACTCG) | 0.938
TCAGAGACATGGACCGGTTTTCCCGGTAATCCGTATTTGAG (site TCAGAGACTCT) | 1.82
TCAGAGACATGGACCGGTTTTCCCGGTAATCCGTATTTGCG (site ACAGAGACTCG) | 1.11
TCAGAGACATGGACCGGTTTTCCCGGTAATCCGTATTTGCG (site CCAGAGACTCG) | 1.66
TCAGAGACATGGACCGGTTTTCCCGGTAATCCGTATTTGCG (site GCAGAGACTCG) | 0.00466
TCAGAGACATGGACCGGTTTTCCCGGTAATCCGTATTTGCG (site TAAGAGACTCG) | 1.02
TCAGAGACATGGACCGGTTTTCCCGGTAATCCGTATTTGCG (site TCAAAGACTCG) | 1.55
TCAGAGACATGGACCGGTTTTCCCGGTAATCCGTATTTGCG (site TCACAGACTCG) | 0.316
TCAGAGACATGGACCGGTTTTCCCGGTAATCCGTATTTGCG (site TCAGAAACTCG) | 1.73
TCAGAGACATGGACCGGTTTTCCCGGTAATCCGTATTTGCG (site TCAGACACTCG) | 0.327
TCAGAGACATGGACCGGTTTTCCCGGTAATCCGTATTTGCG (site TCAGAGACTAG) | 0.65
TCAGAGACATGGACCGGTTTTCCCGGTAATCCGTATTTGCG (site TCAGAGACTCA) | 0.943
TCAGAGACATGGACCGGTTTTCCCGGTAATCCGTATTTGCG (site TCAGAGACTCC) | 0.0212
TCAGAGACATGGACCGGTTTTCCCGGTAATCCGTATTTGCG (site TCAGAGACTCG) | 2.3
TCAGAGACATGGACCGGTTTTCCCGGTAATCCGTATTTGCG (site TCAGAGACTCT) | 0.0281
TCAGAGACATGGACCGGTTTTCCCGGTAATCCGTATTTGCG (site TCAGAGACTGG) | 0.387
TCAGAGACATGGACCGGTTTTCCCGGTAATCCGTATTTGCG (site TCAGAGACTTG) | 1.84
TCAGAGACATGGACCGGTTTTCCCGGTAATCCGTATTTGCG (site TCAGAGCCTCG) | 0.0106
TCAGAGACATGGACCGGTTTTCCCGGTAATCCGTATTTGCG (site TCAGAGGCTCG) | 1.98

Sequence | recombinant UMI read abundance (log10)
TCAGAGACATGGACCGGTTTTCCCGGTAATCCGTATTTGCG (site TCAGAGTCTCG) | 1.37
TCAGAGACATGGACCGGTTTTCCCGGTAATCCGTATTTGCG (site TCAGATACTCG) | 0.784
TCAGAGACATGGACCGGTTTTCCCGGTAATCCGTATTTGCG (site TCAGCGACTCG) | 0.00351
TCAGAGACATGGACCGGTTTTCCCGGTAATCCGTATTTGCG (site TCAGGGACTCG) | 0.0144
TCAGAGACATGGACCGGTTTTCCCGGTAATCCGTATTTGCG (site TCAGTGACTCG) | 0.0233
TCAGAGACATGGACCGGTTTTCCCGGTAATCCGTATTTGCG (site TCATAGACTCG) | 0.524
TCAGAGACATGGACCGGTTTTCCCGGTAATCCGTATTTGCG (site TCCGAGACTCG) | 0.462
TCAGAGACATGGACCGGTTTTCCCGGTAATCCGTATTTGCG (site TCGGAGACTCG) | 0.836
TCAGAGACATGGACCGGTTTTCCCGGTAATCCGTATTTGCG (site TCTGAGACTCG) | 0.346
TCAGAGACATGGACCGGTTTTCCCGGTAATCCGTATTTGCG (site TGAGAGACTCG) | 0.498
TCAGAGACATGGACCGGTTTTCCCGGTAATCCGTATTTGCG (site TTAGAGACTCG) | 1.56
TCAGAGGCATGGACCGGTTTTCCCGGTAATCCGTATTTGCG (site TCAGAGACTCG) | 0.431
TCAGAGGCATGGACCGGTTTTCCCGGTAATCCGTATTTGCG (site TCAGAGCCTCG) | 0.0967
TCAGAGGCATGGACCGGTTTTCCCGGTAATCCGTATTTGCG (site TCAGAGGCTCG) | 1.26
TCAGAGGCATGGACCGGTTTTCCCGGTAATCCGTATTTGCG (site TCAGAGTCTCG) | 2.18
TCAGGTACATGGACCGGTTTTCCCGGTAATCCGTATTTGCA (site TCAGGTACTTG) | 2.02
TCAGGTGCATGGACCGGTTTTCCCGGTAATCCGTATTTGAT (site ACAGGTGCTAT) | 0
TCAGGTGCATGGACCGGTTTTCCCGGTAATCCGTATTTGAT (site CCAGGTGCTAT) | 1.06
TCAGGTGCATGGACCGGTTTTCCCGGTAATCCGTATTTGAT (site GCAGGTGCTAT) | 0.018
TCAGGTGCATGGACCGGTTTTCCCGGTAATCCGTATTTGAT (site TCAGGTGCTAT) | 1.74
TCAGGTTCATGGACCGGTTTTCCCGGTAATCCGTATTTGGA (site TCAGGTTCTTC) | 2.16
TCAGTATCATGGACCGGTTTTCCCGGTAATCCGTATTTGCA (site ACAGTATCTTG) | 1.93
TCAGTATCATGGACCGGTTTTCCCGGTAATCCGTATTTGCA (site CCAGTATCTTG) | 2.06

Sequence | recombinant UMI read abundance (log10)
TCAGTATCATGGACCGGTTTTCCCGGTAATCCGTATTTGCA (site GCAGTATCTTG) | 0.463
TCAGTATCATGGACCGGTTTTCCCGGTAATCCGTATTTGCA (site TCAGTATCTTG) | 2.23
TCAGTATCATGGACCGGTTTTCCCGGTAATCCGTATTTGTA (site ACAGTATCTTG) | 0.377
TCAGTATCATGGACCGGTTTTCCCGGTAATCCGTATTTGTA (site TCAGTATCTTA) | 2.5
TCAGTCACATGGACCGGTTTTCCCGGTAATCCGTATTTGAG (site TCAGTCACTCT) | 0.702
TCAGTGACATGGACCGGTTTTCCCGGTAATCCGTATTTGCG (site TCAGAGACTCG) | 0.0602
TCAGTGACATGGACCGGTTTTCCCGGTAATCCGTATTTGCG (site TCAGCGACTCG) | 0.00331
TCAGTGACATGGACCGGTTTTCCCGGTAATCCGTATTTGCG (site TCAGGGACTCG) | 0.00386
TCAGTGACATGGACCGGTTTTCCCGGTAATCCGTATTTGCG (site TCAGTGACTCG) | 1.21
TCATACTCATGGACCGGTTTTCCCGGTAATCCGTATTTGCG (site TCATACTCTAG) | 0
TCATACTCATGGACCGGTTTTCCCGGTAATCCGTATTTGCG (site TCATACTCTCG) | 2.57
TCATACTCATGGACCGGTTTTCCCGGTAATCCGTATTTGCG (site TCATACTCTGG) | 0.0107
TCATACTCATGGACCGGTTTTCCCGGTAATCCGTATTTGCG (site TCATACTCTTG) | 2.1
TCATAGGCATGGACCGGTTTTCCCGGTAATCCGTATTTGAG (site TCATAGGCTCT) | 1.46
TCATCTTCATGGACCGGTTTTCCCGGTAATCCGTATTTGGT (site TCATCTTCTAC) | 0.467
TCATGACCATGGACCGGTTTTCCCGGTAATCCGTATTTGCC (site TCATGACCTGG) | 0
TCATGACCATGGACCGGTTTTCCCGGTAATCCGTATTTGCG (site TCATGACCTCG) | 0.00794
TCATGAGCATGGACCGGTTTTCCCGGTAATCCGTATTTGGG (site TAATGAGCTCC) | 0.0178
TCATGAGCATGGACCGGTTTTCCCGGTAATCCGTATTTGGG (site TCATGAGCTCC) | 0.0121
TCATGAGCATGGACCGGTTTTCCCGGTAATCCGTATTTGGG (site TGATGAGCTCC) | 0.00797
TCATGAGCATGGACCGGTTTTCCCGGTAATCCGTATTTGGG (site TTATGAGCTCC) | 0.00944
TCATGTCCATGGACCGGTTTTCCCGGTAATCCGTATTTGTG (site TCATGTCCTCA) | 0
